Data on 79 compounds can be found in the METLIN SMRT retention time set (Domingo-Almenara et al. 2019).

The series can be described thus: gradient 5% acetonitrile 3 min, to 50% in 2 min, to 85% in 15 min, held 3 min, 100 µL/min. The conditions noted are these: column: Zorbax Extend-C18 2.1 x 50 mm; eluents: water / acetonitrile, 0.1% formic acid. In outline: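 Each retention time is based on an adduct peak selected computationally and verified by manual inspection. Measurements used HPLC–quadrupole time-of-flight mass spectrometry in positive and negative ionization mode on mixtures of ~100 pure standards. Chromatography ran on a Zorbax Extend-C18 column (2.1 × 50 mm, 1.8 μm) at 100 μL/min with water and acetonitrile, each containing 0.1% formic acid, and dead and dwell volumes of 40 μL and 900 μL.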
As to `COc1ncc(C(=O)NCc2cccc(Br)c2)cn1`, the RP-LC retention time amounted to 779 s.

`CCC1=C(c2ccc(C)cc2)S(=O)(=O)N=C1N1CCC(C(=O)N(C)Cc2ccco2)CC1` came in with an RP-LC retention time of 894 s.

With `CCn1cc(C(=O)Nc2cccc(Br)c2)c2nn(-c3ccccc3)c(=O)c-2c1`, the RP-LC retention time was 1090 s.

Regarding `Cc1cc(NC(=O)N(C)CC2CCOCC2)ccc1Br`, the RP-LC retention time was determined as 819 s.

Take `Cc1cc(-c2ccc(S(=O)(=O)N3CCC(C(=O)NCc4ccccc4C)CC3)o2)n[nH]1`: the RP-LC retention time worked out at 816 s.

`CSc1cccc(NC(=O)N2CCN(C3=CC4=NC(C)CN4C=N3)CC2)c1` (centres undefined): the RP-LC retention time worked out at 638 s.

Regarding `COc1ccc(NC(=O)N2CCCC(C)(C(=O)NCc3ccccc3C)C2)c(OC)c1` (centres undefined), the RP-LC retention time worked out at 866 s.

In turn, `CC1(C(=O)NC2CCCC2)Cn2cnc(C(=O)NCCCc3ccccc3)c2C(=O)N1C1CC1` (centres undefined) displayed an RP-LC retention time of 823 s.

On to `CC1(C(=O)NCc2ccccc2)Cn2cnc(C(=O)NCCc3ccccc3)c2C(=O)N1C1CC1` (centres undefined), for which the RP-LC retention time is 754 s.

Turning to `CCOc1cccc(CNc2c(-c3nc(C)no3)cnc3nc(C)ccc23)c1`, the RP-LC retention time was determined as 724 s.

Compound `Cc1nc(-c2csc(S(=O)(=O)N3CCC(C(=O)NCCc4ccc(Cl)cc4)CC3)c2)no1` displayed an RP-LC retention time of 938 s.

In turn, `Cc1cc(C)cc(NC(=O)CN2C(=O)CCc3cc(S(=O)(=O)N4CCCCC4C)ccc32)c1` (centres undefined) showed an RP-LC retention time of 930 s.

The compound `O=C([C@@H]1C[C@H](Oc2ccccc2)CN1C(=O)CCCc1c[nH]c2ccccc12)N1CCCC1` yielded an RP-LC retention time of 865 s.

`CCn1cc(-c2ccc(F)cc2)cc1C(=O)O` returned an RP-LC retention time of 861 s.

The compound `O=C1NC(=O)/C(=C\c2ccccc2Br)S1` displayed an RP-LC retention time of 821 s.

Regarding `CCOC(=O)c1cnc2nc(C)ccc2c1Nc1ccc2c(c1)OCO2`, the RP-LC retention time worked out at 680 s.

In the case of `Cn1c(=O)c2ccnn2c2ccc(C(=O)NCc3ccccc3)cc21`, the RP-LC retention time was found to be 665 s.

In turn, `CCc1ccc(NC(=O)Nc2ccc3nc(N4CCN(C)CC4)cc(C)c3c2)cc1` registered an RP-LC retention time of 609 s.

The compound `Cc1ccc(NC(=O)c2ncn3c2C(=O)N(C2CC2)C(C)(C(=O)NC2CCCC2)C3)c(Cl)c1` (centres undefined) registered an RP-LC retention time of 864 s.

For `COc1cccc(CNC(=O)N2CCCC2c2cc(C(C)C)no2)c1` (centres undefined), the RP-LC retention time was found to be 836 s.

In turn, `Cc1ccc(-c2nnc(Cc3nc(-c4cccc(F)c4)no3)o2)cc1` yielded an RP-LC retention time of 1060 s.

Regarding `CCOc1cc(-c2noc(-c3nnn4c3COC(c3ccc(C)cc3C)C4)n2)ccc1OC` (centres undefined), the RP-LC retention time was 1250 s.

The compound `COc1cccc(CN2CCC3(CC2)CN(c2ncccn2)CC3CO)n1` (centres undefined) came in with an RP-LC retention time of 562 s.

Take `Cc1cnc(C(=O)N2CCCCCNC(=O)[C@@H]3CCC[C@@H]32)cn1`: the RP-LC retention time amounted to 623 s.

Regarding `O=C(COc1ccc2c(c1)C(=O)CC2)NCCC1=CCCCC1`, the RP-LC retention time came to 827 s.

Consider `Cc1ccc(-c2cn3cccnc3n2)cc1NC(=O)c1cccc(Br)c1`, for which the RP-LC retention time is 723 s.

`Cc1cc(C)nc(Sc2ccc(S(C)(=O)=O)cc2[N+](=O)[O-])n1` came in with an RP-LC retention time of 750 s.

As for `Cc1cccc(NC(=O)N2CCC(N3CCN(Cc4ccccc4)C3=O)CC2)c1`, the RP-LC retention time came out at 853 s.

Take `CCCNC(=O)CCc1nc2ccccc2n(CC(=O)NCc2ccc(C)cc2)c1=O`: the RP-LC retention time came out at 786 s.

In turn, `CCc1ccc(N2C(=O)CN(Cc3ccccc3Cl)[C@H]3CS(=O)(=O)C[C@H]32)cc1` returned an RP-LC retention time of 910 s.

Turning to `CCNC(=O)N1CC(c2nc(-c3ccccc3)no2)C2(CCOCC2)C1` (centres undefined), the RP-LC retention time is 728 s.

For `CCOc1ccc(Cl)cc1S(=O)(=O)N1CCC(C(=O)NCCCO)CC1`, the RP-LC retention time stood at 688 s.

Turning to `CCC(Sc1ncnc2c1cnn2-c1ccc(F)cc1)C(=O)OC` (centres undefined), the RP-LC retention time is 1170 s.

The compound `CCS(=O)(=O)N1CC(=O)N(c2cccc(F)c2)C(C)(C(=O)NC2CCCCCCC2)C1` (centres undefined) gave an RP-LC retention time of 956 s.

`Cc1c(Cl)cccc1NC(=O)Nc1cccc(-c2ccc(N3CCOCC3)nn2)c1`: the RP-LC retention time turned out to be 753 s.

Consider `O=c1n(Cc2cccc(C(F)(F)F)c2)nc2c(S(=O)(=O)N3CCCCC3)cccn12`, for which the RP-LC retention time amounted to 993 s.

On to `Cc1cc(C)cc(NC(=O)CN2C(=O)CSc3ccc(C(=O)N4CCCC4)cc32)c1`, for which the RP-LC retention time is 634 s.

For `C[C@H]1CN(C(=O)Cc2ccccc2F)C[C@@H]1c1nc(-c2cccnc2)no1`, the RP-LC retention time was 795 s.

In turn, `Cc1ccc(-c2nnc(Cc3nc(-c4cccc(C)c4)no3)o2)cc1` showed an RP-LC retention time of 1110 s.

For `COc1cccc(-c2nc(Cn3cnc4nc5c(cc4c3=O)CC(C)CC5)c(C)o2)c1OC` (centres undefined), the RP-LC retention time stood at 941 s.

`Cc1c(C(=O)N2CCCC2)cc(-c2ccc(F)cc2)n1C` registered an RP-LC retention time of 889 s.

Regarding `Cc1ccc(N2CCC(NC(=O)Nc3ccc(C)cc3C)C2=O)cc1` (centres undefined), the RP-LC retention time came to 875 s.

As to `COc1ccc(NC(=O)CN2C(=O)C(C)(C)c3ccccc32)c(OC)c1`, the RP-LC retention time worked out at 869 s.

As for `Cc1noc2nc(CCC(=O)NCCCN3CCc4ccccc4C3)nc(N3CCOCC3)c12`, the RP-LC retention time stood at 605 s.

Take `CCc1noc(CN2N=C(C(=O)N3CCC(C)CC3)S(=O)(=O)c3ccc(C)cc32)n1`: the RP-LC retention time worked out at 954 s.

`COc1ccc(Cn2c(=O)c3sccc3n(Cc3nc(-c4ccc(F)cc4)no3)c2=O)cc1`: the RP-LC retention time came to 1080 s.

As to `Cc1cccc(NC(=O)C2CCCN(S(=O)(=O)c3c[nH]c(C(=O)N4CCCC4)c3)C2)c1C` (centres undefined), the RP-LC retention time is 802 s.

For `CCOc1cccc2sc(N(Cc3ccccn3)C(=O)c3nn(C)cc3C)nc12`, the RP-LC retention time amounted to 763 s.

With `CCN1c2cc(Cl)ccc2C(=O)NC12CCN(C(=O)NCc1ccc(F)cc1)CC2`, the RP-LC retention time stood at 840 s.

For `Cc1ccc2c(c1)N(S(C)(=O)=O)CC(C)O2` (centres undefined), the RP-LC retention time worked out at 620 s.

As to `CC(C)n1c(N2CCCN(C(=O)COc3ccc(Cl)cc3)CC2)cc(=O)n(C(C)C)c1=O`, the RP-LC retention time was 914 s.

Regarding `COc1ccc(OC)c(CN2CCc3nc(N4CCOCC4)ncc3C2)c1`, the RP-LC retention time is 607 s.

In turn, `CN(CC1CCOCC1)C(=O)Nc1cccc(F)c1` came in with an RP-LC retention time of 720 s.

In the case of `CCOc1ccc(C(C)NC(=O)c2cn3c(n2)CN(CC(C)C)CC3)cc1` (centres undefined), the RP-LC retention time is 640 s.

Compound `CC1CCCN(CC2CCN(S(=O)(=O)Cc3cc(F)cc(F)c3)CC2)C1` (centres undefined) displayed an RP-LC retention time of 666 s.

For the compound `Cc1ccnc(Nc2nc(C)c(C(=O)N3CCOCC3)s2)c1`, the RP-LC retention time was determined as 617 s.

In turn, `O=C(N[C@@H]1CN(c2ccncn2)C[C@H]1CO)C1CCCC1` gave an RP-LC retention time of 550 s.

`COc1cccc(N2CCN(c3ccnc(SCC(=O)NCCC4=CCCCC4)n3)CC2)c1`: the RP-LC retention time amounted to 862 s.

With `CCCNC(=O)c1cnn(-c2cc(-c3nc(C)no3)ccn2)c1C`, the RP-LC retention time is 772 s.

The compound `Cc1[nH]c(C(=O)N2CCCC(C(=O)NCCN3CCCCC3)C2)c(C)c1C(=O)OC(C)C` (centres undefined) returned an RP-LC retention time of 634 s.

`Cn1nc(C(=O)Nc2ccc(S(N)(=O)=O)cc2)ccc1=O` displayed an RP-LC retention time of 582 s.

`Cc1cccc(N2CCN(C(=O)c3ccc(CN4CCN(C(C)C)C(=O)C4=O)cc3)CC2)c1` gave an RP-LC retention time of 759 s.

`CCOCCOC(=O)C1=C(C)NC2=C(C(=O)C(C(=O)OC)C(C)C2)C1c1cccc(Cl)c1` (centres undefined) displayed an RP-LC retention time of 931 s.

For `CCOCCCNC(=O)CN1c2ccc(F)cc2-c2ccccc2S1(=O)=O`, the RP-LC retention time came to 820 s.

The compound `COc1ccccc1NC(=O)CSCC(=O)N1CCC(C(N)=O)CC1` displayed an RP-LC retention time of 619 s.

Compound `CCc1ccc(S(=O)(=O)Nc2ccc(-c3cn4ccc(C)nc4n3)cc2)cc1` displayed an RP-LC retention time of 696 s.

The compound `CCn1cc(S(=O)(=O)N2CCC(N3CC4(CCCCC4)C3c3ccccc3)CC2)cn1` (centres undefined) gave an RP-LC retention time of 660 s.

`COc1ccc(-n2c(=O)n(C)c(=O)c3cc(C(=O)NCc4ccccc4)cnc32)cc1` yielded an RP-LC retention time of 849 s.

As for `Cc1noc(-c2cccn2Cc2ccccc2F)n1`, the RP-LC retention time is 1050 s.

Consider `COc1ccc(NC(=O)c2c(OC)cc(=O)n3c2CCCC3)c(OC)c1`, for which the RP-LC retention time came to 877 s.

As to `CCOC(=O)Cc1ccc(NC(=O)NCCc2c(C)nn(C)c2C)cc1`, the RP-LC retention time was 644 s.

`Cc1sc(-c2cc(C(F)(F)F)on2)cc1S(=O)(=O)NCc1ccccc1Cl`: the RP-LC retention time stood at 1140 s.

The compound `CN(C)C(=O)c1ccc2c(c1)N(CC(=O)N1CCCCC1)C(=O)C1CCCCN21` (centres undefined) came in with an RP-LC retention time of 701 s.

`O=C(Cc1ccc(F)cc1)Nc1nnc(C2CC(=O)N(c3ccc(Cl)cc3)C2)o1` (centres undefined) came in with an RP-LC retention time of 789 s.

The compound `CCOc1c(C)cc(S(=O)(=O)NCC2(O)CCOCC2)cc1C` came in with an RP-LC retention time of 690 s.

`O=C(CSc1nc(N2CCCCC2)nc2ccccc12)Nc1ccc(Cl)cc1` registered an RP-LC retention time of 804 s.

`CCCn1cc(CCNS(=O)(=O)c2ccc(F)c(Cl)c2)c2cccnc21`: the RP-LC retention time was found to be 931 s.

In the case of `Cc1c(C(=O)NCC(c2cccs2)N2CCCC2)oc2ccc(Cl)cc12` (centres undefined), the RP-LC retention time was determined as 730 s.

For the compound `CCOc1ccc(-c2noc(N3CCC(C(=O)Nc4cc(Cl)ccc4OC)CC3)n2)cc1OC`, the RP-LC retention time was found to be 1090 s.
